Columns and labels:
[1] = tested on: 20-HETE synthase originated from rat kidney microsome; experiment: Inhibitory effect of 20-HETE synthase originated from rat kidney microsome; format: biochemical; details: for Inhibition rate (1 μM): 20-HETE production without compound set to 100%
Procedure: Experimental Example [Inhibitory effect of 20-HETE synthase originated from rat kidney microsome]
Regarding the compounds listed in Table 1, their inhibitory activity to production of 20-HETE was examined.
The subject compound for this examination was added to a buffer comprising 50 mM of 3-morpholinopropane sulfonic acid (pH7.4), 5 mM of magnesium chloride and 1 mM of ethylenediaminetetraacetic acid (EDTA) disodium salt.
After that, the rat kidney microsome (microsome fraction prepared from the kidney of a spontaneous hypertension rat (male, 6 weeks of age)) as an enzyme, [5,6,8,9,11,12,14,15] tritium-arachidonic acid (supplied by Amasham) as a substrate, and NADPH (supplied by Sigma) as a coenzyme were added and reacted for 1.5 hours at 37° C.
After the reaction, formic acid was added to stop the reaction, and then acetonitrile (final concentration of 50%) was added and left for 1.5 hours at room temperature.
The activity of 20-HETE synthase was measured by using a high performance liquid chromatograph having a detector for radioactive substances (supplied by Gilson), and equipped with a C18 reversed phase column (Biocyl C18, supplied by Bio-rad).

[2] = 1 μM of subject compound, rat kidney microsome
[3] = concentration at which 20-HETE production was inhibited to 50%, rat kidney microsome
[4] = 1 μM of the subject compound added, rat kidney microsome
[5] = concentration at which production of 20-HETE was inhibited to 50%, rat kidney microsome
[6] = concentration at which production of 20-HETE was inhibited to 50%

Row | SMILES | Inhibition rate (1 μM) [1, 2] | IC50 [1, 3] | melting point | Inhibition rate (1 μM) [1, 4] | IC50 [1, 5] | Inhibition rate (1 μM) ([1]; 1 μM of the subject compound) | IC50 [1, 6]
1 | O/N=C/Nc1ccc(OCc2cc(F)ccc2F)cc1 [Comp. 384] | 117.3 | 2.8 nM | 167 to 167.5 °C |  |  |  | 
2 | CC1(C)COC(CCOc2ccc(N/C=N/O)cc2)OC1 [Comp. 364] | 104 | 2 nM | 136.5 to 137.5 °C |  |  |  | 
3 | CCOC(=O)Cc1ccc(N/C=N/O)cc1 [Comp. 122] |  |  | 106 to 107.5 °C | 94.7 | 28.9 nM |  | 
4 | O/N=C/Nc1ccc(F)cc1F [Comp. 50] |  |  | 155.5 to 156.5 °C |  | 25.5 nM |  | 
5 | CCC(C)c1ccccc1N/C=N/O (stereo not shown) [Comp. 42] |  |  | 144 to 145 °C | 99.9 |  |  | 
6 | C=CCCCOc1ccc(N/C=N/O)cc1 [Comp. 329] | 121.1 | 0.7 nM | 127 to 128 °C |  |  |  | 
7 | COc1ccc(COc2ccc(N/C=N/O)cc2)cc1 [Comp. 389] | 105.5 | 1.6 nM | 167 to 167.5 °C |  |  |  | 
8 | CN(C)CCCOc1ccc(N/C=N/O)cc1 [Comp. 400] |  |  | 115 to 117 °C |  |  | 116.9 | 48.7 nM
9 | O/N=C/Nc1ccc(Br)c2ccccc12 [Comp. 235] | 77.8 | 5920 nM | 167.5 to 168 °C |  |  |  | 
10 | O/N=C/Nc1ccc(OCc2ccco2)cc1 [Comp. 352] | 97 | 4.6 nM | 158.5 to 159.5 °C |  |  |  | 
11 | CN1CCCC(COc2ccc(N/C=N/O)cc2)C1 (stereo not shown) [Comp. 415] |  |  | 114 to 117 °C |  |  | 103.7 | 17.6 nM
12 | CCCC(=O)c1ccc(N/C=N/O)c(C)c1 [Comp. 232] | 86.0 | 6.6 nM | 154 to 155 °C |  |  |  | 
13 | CN1CCCCC1COc1ccc(N/C=N/O)cc1 (stereo not shown) [Comp. 417] |  |  | 146.5 to 148 °C |  |  | 102.8 | 90 nM
14 | Cc1cccc(COc2ccc(N/C=N/O)cc2)n1 [Comp. 369] | 105 | 3.1 nM | 146.5 to 149 °C |  |  |  | 
15 | CC#CCOc1ccc(N/C=N/O)cc1 [Comp. 333] | 119.3 | 2.2 nM | 171.5 to 172 °C |  |  |  | 
16 | O/N=C/Nc1ccc(SCc2ccccc2)cc1 [Comp. 441, N-[4-(benzylthio)phenyl]-N′-hydroxyformamidine] |  |  | 166 °C |  |  | 94.2 | 
17 | O=[N+]([O-])c1cc(F)ccc1N/C=N/O [Comp. 126] |  |  | 172.5 to 173 °C (dec.) | 34.9 |  |  | 
18 | O/N=C/Nc1ccc(OCc2ccccc2)cc1 [Comp. 343] | 84.5 | 3.3 nM | 166.5 to 167 °C |  |  |  | 
19 | C#CCCOc1ccc(N/C=N/O)cc1 [Comp. 335] | 110 | 1.4 nM | 139 to 141 °C |  |  |  | 
20 | CSCCCOc1ccc(N/C=N/O)cc1 [Comp. 414] |  |  | 132 to 133.5 °C |  |  | 113.2 | 1 nM
21 | O/N=C/Nc1ccc(OCc2ccncc2)cc1 [Comp. 344] | 107 | 37.5 nM | 180 to 180.5 °C |  |  |  | 
22 | OCCc1ccc(N/C=N/O)cc1 [Comp. 207] | 90.7 | 11.6 nM | 138 to 140 °C |  |  |  | 
23 | Cc1cc(I)ccc1N/C=N/O [Comp. 47] |  |  | 166 to 166.5 °C | 94.8 | 6.5 nM |  | 
24 | CCCCCOc1ccc(N/C=N/O)cc1 [Comp. 319] | 99.9 | 3.8 nM | 126 to 137.5 °C |  |  |  | 
25 | O/N=C/Nc1ccc(F)cc1 [Comp. 12] |  |  | 139.5 to 140.5 °C | 77.1 | 1420 nM |  | 
26 | Cc1ncsc1CCOc1ccc(N/C=N/O)cc1 [Comp. 353] | 105 | 3.7 nM | 158 to 160 °C |  |  |  | 
27 | O=C1CCCN1CCCOc1ccc(N/C=N/O)cc1 [Comp. 408] |  |  | 177 to 177.5 °C |  |  | 103.0 | 4.2 nM
28 | O/N=C/Nc1c(Br)cccc1Br [Comp. 33] |  |  | 171 °C | 91.9 |  |  | 
29 | CCCCCCCc1ccc(N/C=N/O)cc1 [Comp. 28] |  |  | 119 to 120.5 °C | 92.5 | 4.7 nM |  | 
30 | O/N=C/Nc1ccc(Oc2ccccc2)cc1 [Comp. 131] |  |  | 144 to 145.5 °C | 89.2 | 26 nM |  | 

— patent US7078400B2, “20-HETE synthase inhibitor” (Taisho Pharmaceutical Co., Ltd., priority 1999, dated 2006)
